Measured values reported in patent US5220042A, “1,4-benzoquinone derivatives and benzene derivatives, and process for preparing the same” (priority 1984, dated 1993).
Read-outs that look alike come from different tables or passages of the source.

How the values were obtained:
[1] = test system: SRS-A release on anaphylaxis in abdominal cavity; test: SRS-A releasing inhibition test on anaphylaxis in abdominal cavity of rats; assay type: in vivo, rat (Sprague-Dawley strain); conditions: oral, 3 hours before anaphylaxis; dose not given
Experimental: SRS-A and histamine releasing inhibition test on anaphylaxis in abdominal cavity of rats.
Male or female rats (Sprague-Dawley strain, delivered from Charles River, Japan Ltd., Tokyo) of 6-7 week age were used as the test animals. The test animals were devided into a group consisting of 6 animals in one group depending on their body weight. The animals were fasted overnight. The test was conducted by a method according to P. T. Orange et al.: "J. Immunol., Vol. 105", pages 1087-1095 (1970).
1 Milliliter each of twofold diluted anti-ovalbumin serm of rat was intraperitoneally injected to each of the test animal so as to have the rat sensitized. 2 Hours after the sensitization, 5 ml of Tyrode's solution containing 2 mg of ovalbumin and 250 micrograms of heparin sodium was intraperitoneally administered to the test animal to cause anaphylaxis. 5 Minutes after, the test animal was stunned by the blow on the head and was exsanguinated and killed by cervical incision. Additional 5 minutes later, the abdominal fluid was collected from the opening of the abdomen. The fluid collected was centrifuged at 4° C., first at 800 rpm, then at 2,500 rpm and the supernatant was collected, and stored at -80° C. until the bioassay was conducted. […]
The amount of SRS-A and histamine contained in the collected abdominal fluid was measured by a method similar to that employed in Pharmacological test-2.
Bio-assay of the collected abdominal fluid was conducted by using ileum of guinea pig which was treated with atropine. […] The isotonic contraction of the piece of the ileum was measured at 0.5 g of load by using an isotonic transducer "TD-112S" (manufactured by Nihon Koden Co., Ltd.). The measurements were recorded on an ink-writing recorder.
The amount of SRS-A was measured by using the value of contraction shown after the addition of 0.2-0.5 ml of the collected fluid in the presence of 10^-7 M of pyrilamine (antihistaminic agent), said value of the contraction was calculated as contraction activity caused by 5 ng of histamine. […]

[2] = test system: SRS-A release from lung fragments; test: Inhibition of SRS-A release from sensitized guinea pig lung fragments; assay type: cell-based, guinea pig (Hartley strain); conditions: Cavia porcellus
Method in brief: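 Lung fragments from ovalbumin-sensitized male Hartley guinea pigs were preincubated 5 min at 37 °C in Tyrode's, given compound in DMSO for 5 min, then challenged with ovalbumin for 10 min. Released histamine was bioassayed by guinea pig ileum contraction at 30 s. SRS-A was read at 2 min with 10^-6 M pyrilamine against a crude SRS-A standard curve.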

[3] = test system: histamine release from lung fragments; test: Inhibition of histamine release from sensitized guinea pig lung fragments; assay type: cell-based, guinea pig (Hartley strain); conditions: Cavia porcellus, read-out: Inhibition ratio (%) Histamine; for inhibition at 3 µM: Table 2, dose 3 μM; for inhibition at 30 µM: Table 2, dose 30 μM
Experimental: Inhibitory activities on the release of SRS-A and histamine of the present compounds were determined.
A male guinea pig (Hartley strain) (body weight: about 300 g) was sensitized by a method according to P. Anderson: "Int. Archs. Allergey appln. Immunol., Vol. 64, pages 249-258 (1981). Thus, 30 mg/kg of cyclophosphamide was intraperitoneally administered to the guinea pig, and 2 days after 1 microgram of ovalbumin (manufactured by Sigma Chemical Co., St. Louis, Mo. U. S. A.) together with 10 mg of aluminium hydroxide gel were intraperitoneally administered so as to have the animal sesitized.
50 Days after the sesitization, the animal was killed by exsanguination, and the lung was isolated from the animal and was perfused with 20 ml of Tyrode's solution, then immersed in an ice-cooled Tyrode's solution. The parenchyma of the lung was cut by using McIlwain-type tissue chopper to make it into fragments of lung having 2 mm square and the fragments were washed with Tyrode's solution. 400 Milligrams of sectiles of lung were suspended in 3.6 ml of Tyrode's solution, and this suspension was preincubated at 37° C. for 5 minutes, then 4 microliters of dimethyl sulfoxide solution of the test compound, in the case of control 4 microliters of dimethyl sulfoxide alone was added to the suspension. 5 Minutes after, 0.4 ml of 100 micrograms/ml of ovalbumin solution added so as to release SRS-A for 10 minutes. The suspension was ice-cooled and filtered through gauze, the filtrate was centrifuged at 2,000 rpm for 10 minutes and the supernatant was collected. The supernatant was stored in freezed state at -80° C. until bio-assay was conducted.
Amounts of SRS-A and histamine contained in the supernatant were determined by bio-assay using ileum of guinea pig.
A piece of the ileum (2-3 cm of length) positioned from 15-25 cm from the opening portion of ileocecum was isolated from a male guinea pig (Hartley strain) (body weight: 400-600 g) which was fasted for 24 hours. The piece of ileum was hanged vertically in a Magnus tube which was filled with 10 ml of Tyrode's solution containing 10^-7 M of atropine sulfate under air stream conditions. The isotonic contraction of the piece of the ileum was measured at 0.5 g of load by using an isotonic transducer "TD-112S" (manufactured by Nihon Koden Co., Ltd.). The measurements were carried out after the reaction to histamine of the piece of ileum was kept constant. Bioassay of histamine was measured by using the value of contraction shown in 30 seconds after the addition of the supernatant. Bioassay of on SRS-A was measured by using the value of contraction shown at 2 minutes after the addition of the supernatant in the presence of 10^-6 M of pyrilamine (manufactured by Sigma Chemical Co.), and compared with the standard curve of crude SRS-A released from the fragments of the lung.

[4] = Table 2, dose 3 μM, read-out: Inhibition ratio (%) SRS-A
[5] = Table 2, dose 30 μM, read-out: Inhibition ratio (%) SRS-A
[6] = Table 2B, 3 μM, read-out: Inhibitory activities on SRS-A (%)
[7] = Table 2B, 30 μM, read-out: Inhibitory activities on SRS-A (%)

Row | Structure (SMILES) | Inhibitory rate (%) SRS-A [1] | inhibition at 3 µM [2, 4] | inhibition at 30 µM [2, 5] | inhibition at 3 µM [2, 6] | inhibition at 30 µM [2, 7] | inhibition at 3 µM [3] | inhibition at 30 µM [3]
1 | COC1=CC(=O)C(OC)=C(CCCCCC#CCCCCCC2=C(OC)C(=O)C=C(OC)C2=O)C1=O [Test Compound No. 16, 2,2'-(6-Dodecynylene)bis(3,6-dimethoxy-1,4-benzoquinone)] | 15.5% | 23.4% | 43.9% | 23.4% | 43.9% | – | –
2 | COC1=CC(=O)C(OC)=C(CCCCCC2=C(OC)C(=O)C=C(OC)C2=O)C1=O [Test Compound No. 9, 2,2'-Pentamethylenebis(3,6-dimethoxy-1,4-benzoquinone)] | 4.9% | 50.3% | > 94.8% | 50.3% | 94.2% | -15% | 4.1%
3 | COC1=CC(=O)C(OC)=C(CCCCCCCCCC2=C(OC)C(=O)C=C(OC)C2=O)C1=O [Test Compound No. 13, 2,2'-Nonamethylenebis(3,6-dimethoxy-1,4-benzoquinone)] | 25.8% | 22.4% | 43.9% | 22.4% | 43.9% | -2.7% | -14.9%
